PubChem BioAssay AID1259407 (Chemical Carcinogenesis Research Information System (CCRIS), 2018)
The source made the active and inactive calls. How the calls were made is not given here.

System: CCRIS mutagenicity, Ames/micronucleus/aberration tests
Assay: CCRIS mutagenicity studies
[1] = Test System: AMES SALMONELLA TYPHIMURIUM, Strain/Indicator: TA98, Metabolic Activation: NONE, Method: PREINCUBATION
[2] = Test System: AMES SALMONELLA TYPHIMURIUM, Strain/Indicator: TA98, Metabolic Activation: NONE, Method: STANDARD PLATE
[3] = Test System: AMES SALMONELLA TYPHIMURIUM, Strain/Indicator: TA100, Metabolic Activation: NONE, Method: PREINCUBATION
[4] = Test System: AMES SALMONELLA TYPHIMURIUM, Strain/Indicator: TA1535, Metabolic Activation: NONE, Method: PREINCUBATION
[5] = Test System: AMES SALMONELLA TYPHIMURIUM, Strain/Indicator: TA1537, Metabolic Activation: NONE, Method: PREINCUBATION

In the case of `CC(=O)OCc1ccc2ccc3cccc4ccc1c2c34`, the mutagenic call [1] is reported as “active; positive”.

`O=Nc1ccc2ccc3cccc4ccc1c2c34` was tested, and the mutagenic call (Test System: AMES SALMONELLA TYPHIMURIUM, Strain/Indicator: TA98 (1,8-DNP6), Metabolic Activation: NONE, Method: STANDARD PLATE) was “active; positive”, the mutagenic call (Test System: AMES SALMONELLA TYPHIMURIUM, Strain/Indicator: TA98(1,8-DNP6), Metabolic Activation: NONE, Method: STANDARD PLATE) was “active; positive” and the mutagenic call (Test System: AMES SALMONELLA TYPHIMURIUM, Strain/Indicator: TA98 (NR), Metabolic Activation: NONE, Method: STANDARD PLATE) was “active; positive”. The mutagenic call (Test System: AMES SALMONELLA TYPHIMURIUM, Strain/Indicator: TA98(NR), Metabolic Activation: NONE, Method: STANDARD PLATE) was “active; positive”, the mutagenic call [2] was “active; positive” and the mutagenic call (Test System: CHINESE HAMSTER OVARY, Strain/Indicator: CHO (HGPRT), Metabolic Activation: NONE, Method: SUSPENSION) was “active; positive”. For the same compound, the mutagenic call (Test System: CHINESE HAMSTER OVARY, Strain/Indicator: CHO-K1-BH4 (HGPRT), Metabolic Activation: NONE, Method: SUSPENSION) was “active; positive” and the mutagenic call (Test System: CHINESE HAMSTER OVARY, Strain/Indicator: CHO/HGPRT, Metabolic Activation: NONE) was “active; positive”.

In the case of `Brc1cccc(-c2ccccc2)c1`, the mutagenic call (Test System: AMES SALMONELLA TYPHIMURIUM, Strain/Indicator: TA98, Metabolic Activation: HAMSTER, LIVER, S-9, AROCLOR 1254, Method: PREINCUBATION) is reported as “inactive; negative”, the mutagenic call [1] is reported as “inactive; negative” and the mutagenic call (Test System: AMES SALMONELLA TYPHIMURIUM, Strain/Indicator: TA98, Metabolic Activation: RAT, LIVER, S-9, AROCLOR 1254, Method: PREINCUBATION) is reported as “inactive; negative”. For the same compound, the mutagenic call (Test System: AMES SALMONELLA TYPHIMURIUM, Strain/Indicator: TA100, Metabolic Activation: HAMSTER, LIVER, S-9, AROCLOR 1254, Method: PREINCUBATION) was “inactive; negative”, the mutagenic call [3] was “inactive; negative” and the mutagenic call (Test System: AMES SALMONELLA TYPHIMURIUM, Strain/Indicator: TA100, Metabolic Activation: RAT, LIVER, S-9, AROCLOR 1254, Method: PREINCUBATION) was “inactive; negative”. For the same compound, the mutagenic call (Test System: AMES SALMONELLA TYPHIMURIUM, Strain/Indicator: TA1535, Metabolic Activation: HAMSTER, LIVER, S-9, AROCLOR 1254, Method: PREINCUBATION) was “inactive; negative”, the mutagenic call [4] was “inactive; negative” and the mutagenic call (Test System: AMES SALMONELLA TYPHIMURIUM, Strain/Indicator: TA1535, Metabolic Activation: RAT, LIVER, S-9, AROCLOR 1254, Method: PREINCUBATION) was “inactive; negative”. For the same compound, the mutagenic call (Test System: AMES SALMONELLA TYPHIMURIUM, Strain/Indicator: TA1537, Metabolic Activation: HAMSTER, LIVER, S-9, AROCLOR 1254, Method: PREINCUBATION) was “inactive; negative”, the mutagenic call [5] was “inactive; negative” and the mutagenic call (Test System: AMES SALMONELLA TYPHIMURIUM, Strain/Indicator: TA1537, Metabolic Activation: RAT, LIVER, S-9, AROCLOR 1254, Method: PREINCUBATION) was “inactive; negative”.

In the case of `CCCCC/C=C\C/C=C\CCCCCCCC(=O)O`, the mutagenic call (Test System: AMES SALMONELLA TYPHIMURIUM, Strain/Indicator: TA98, Metabolic Activation: HAMSTER, LIVER, S-9, AROCLOR 1254 (10%), Method: PREINCUBATION) is reported as “inactive; negative”, the mutagenic call (Test System: AMES SALMONELLA TYPHIMURIUM, Strain/Indicator: TA98, Metabolic Activation: HAMSTER, LIVER, S-9, AROCLOR 1254, Method: STANDARD PLATE) is reported as “inactive; negative” and the mutagenic call [1] is reported as “inactive; negative”. The mutagenic call [2] was “inactive; negative”, the mutagenic call (Test System: AMES SALMONELLA TYPHIMURIUM, Strain/Indicator: TA98, Metabolic Activation: RAT, LIVER, S-9, AROCLOR 1254 (10%), Method: PREINCUBATION) was “inactive; negative” and the mutagenic call (Test System: AMES SALMONELLA TYPHIMURIUM, Strain/Indicator: TA98, Metabolic Activation: RAT, LIVER, S-9, AROCLOR 1254, Method: STANDARD PLATE) was “inactive; negative”. For the same compound, the mutagenic call (Test System: AMES SALMONELLA TYPHIMURIUM, Strain/Indicator: TA100, Metabolic Activation: HAMSTER, LIVER, S-9, AROCLOR 1254 (10%), Method: PREINCUBATION) was “inactive; negative”, the mutagenic call (Test System: AMES SALMONELLA TYPHIMURIUM, Strain/Indicator: TA100, Metabolic Activation: HAMSTER, LIVER, S-9, AROCLOR 1254, Method: STANDARD PLATE) was “inactive; negative” and the mutagenic call [3] was “inactive; negative”. The mutagenic call (Test System: AMES SALMONELLA TYPHIMURIUM, Strain/Indicator: TA100, Metabolic Activation: NONE, Method: STANDARD PLATE) was “inactive; negative”, the mutagenic call (Test System: AMES SALMONELLA TYPHIMURIUM, Strain/Indicator: TA100, Metabolic Activation: RAT, LIVER, S-9, AROCLOR 1254 (10%), Method: PREINCUBATION) was “inactive; negative” and the mutagenic call (Test System: AMES SALMONELLA TYPHIMURIUM, Strain/Indicator: TA100, Metabolic Activation: RAT, LIVER, S-9, AROCLOR 1254, Method: STANDARD PLATE) was “inactive; negative”. For the same compound, the mutagenic call (Test System: AMES SALMONELLA TYPHIMURIUM, Strain/Indicator: TA1535, Metabolic Activation: HAMSTER, LIVER, S-9, AROCLOR 1254 (10%), Method: PREINCUBATION) was “inactive; negative”, the mutagenic call (Test System: AMES SALMONELLA TYPHIMURIUM, Strain/Indicator: TA1535, Metabolic Activation: HAMSTER, LIVER, S-9, AROCLOR 1254, Method: STANDARD PLATE) was “inactive; negative” and the mutagenic call [4] was “inactive; negative”. For the same compound, the mutagenic call (Test System: AMES SALMONELLA TYPHIMURIUM, Strain/Indicator: TA1535, Metabolic Activation: NONE, Method: STANDARD PLATE) was “inactive; negative”, the mutagenic call (Test System: AMES SALMONELLA TYPHIMURIUM, Strain/Indicator: TA1535, Metabolic Activation: RAT, LIVER, S-9, AROCLOR 1254 (10%), Method: PREINCUBATION) was “inactive; negative” and the mutagenic call (Test System: AMES SALMONELLA TYPHIMURIUM, Strain/Indicator: TA1535, Metabolic Activation: RAT, LIVER, S-9, AROCLOR 1254, Method: STANDARD PLATE) was “inactive; negative”. The mutagenic call (Test System: AMES SALMONELLA TYPHIMURIUM, Strain/Indicator: TA1537, Metabolic Activation: HAMSTER, LIVER, S-9, AROCLOR 1254 (10%), Method: PREINCUBATION) was “inactive; negative”, the mutagenic call (Test System: AMES SALMONELLA TYPHIMURIUM, Strain/Indicator: TA1537, Metabolic Activation: HAMSTER, LIVER, S-9, AROCLOR 1254, Method: STANDARD PLATE) was “inactive; negative” and the mutagenic call [5] was “inactive; negative”. For the same compound, the mutagenic call (Test System: AMES SALMONELLA TYPHIMURIUM, Strain/Indicator: TA1537, Metabolic Activation: NONE, Method: STANDARD PLATE) was “inactive; negative”, the mutagenic call (Test System: AMES SALMONELLA TYPHIMURIUM, Strain/Indicator: TA1537, Metabolic Activation: RAT, LIVER, S-9, AROCLOR 1254 (10%), Method: PREINCUBATION) was “inactive; negative” and the mutagenic call (Test System: AMES SALMONELLA TYPHIMURIUM, Strain/Indicator: TA1537, Metabolic Activation: RAT, LIVER, S-9, AROCLOR 1254, Method: STANDARD PLATE) was “inactive; negative”. The mutagenic call (Test System: AMES SALMONELLA TYPHIMURIUM, Strain/Indicator: TA1538, Metabolic Activation: HAMSTER, LIVER, S-9, AROCLOR 1254, Method: STANDARD PLATE) was “inactive; negative”, the mutagenic call (Test System: AMES SALMONELLA TYPHIMURIUM, Strain/Indicator: TA1538, Metabolic Activation: NONE, Method: STANDARD PLATE) was “inactive; negative” and the mutagenic call (Test System: AMES SALMONELLA TYPHIMURIUM, Strain/Indicator: TA1538, Metabolic Activation: RAT, LIVER, S-9, AROCLOR 1254, Method: STANDARD PLATE) was “inactive; negative”. The mutagenic call (Test System: MOUSE LYMPHOMA, Strain/Indicator: L5178Y (TK+/TK-), Metabolic Activation: NONE, Method: SUSPENSION/PLATE) was “inactive; negative. reevaluation of results: negative” and the mutagenic call (Test System: MOUSE LYMPHOMA, Strain/Indicator: L5178Y (TK+/TK-), Metabolic Activation: RAT, LIVER, S-9, AROCLOR 1254, Method: SUSPENSION/PLATE) was “inactive; negative. reevaluation of results: negative”.
